Source: patent US5041535A, “Antileukemic and immunostimulant peptides” (Richter Gedeon Vegyeszeti Gyar Rt., priority 1986, dated 1991)

What was measured:
[1] = tested on: peritoneal exsudatum cells (PEC); assay: Effect on phagocytosis, in vivo; design: species or system CFLP mice; details: 24th hour after treatment, control 179.7 ± 3.6
Protocol: Male CFLP mice having a body of weight of 22-23 g are divided into four groups of 8-12 animals each. The animals of the test groups are treated with Glp-Lys-NH2 -mandelate for 2 days. The treatment is carried out by administering a 0.1, 1 or 10 mg/kg s.c. dose, respectively, of the active ingredient once a day, in the form of a solution in a physiological sodium chloride solution. In the 24th hour after the last treatment the yeast cell incorporating capacity of the peritoneal exsudatum cells (PEC) is determined. In the Table the x±S.E.M. data relate to the number of yeast cells incorporated into the 100 PEC cells.

PEC cells [2] = assay: Phagocytosis inhibited by cyclophosphamide, non-simultaneously administered cyclophosphamide and peptide; format: in vivo, CFLP mice; details: CY 80 mg/kg p.o., CY alone 112.1 ± 6.4, control 221 ± 9.4
Protocol: (§1) Male CFLP mice weighing 22-23 g are divided into five groups of 8-12 animals each. The animals belonging to the test groups (all groups except the control one) are treated for two days once a day with a 80 mg/kg p.o. dose of cyclophosphamide and the animals of three of the said groups are treated simultaneously with the administration of cyclophosphamide with a 0.1, 1.0 and 10 mg/kg s.c. dose, respectively, of Glp-Lys-NH2 -mandelate dissolved in a physiological soidum chloride solution. On the 3rd day of the test the yeast cell incorporating capacity of the PEC cells is determined. The x±S.E.M. values disclosed in the Table stand for the number of yeast cells incorporated by the 100 PEC cells. One proceeds as described in test a) except that the peptide is administered to the animals 6 hours after treatment with cyclophosphamide. The test is evaluated as described above.

PEC cells [3] = assay: Phagocytosis inhibited by cyclophosphamide, simultaneously administered cyclophosphamide and peptide; format: in vivo, CFLP mice; details: 2 days, CY alone 102.5 ± 4.8, control 186.3 ± 7.8
Protocol: as §1, with “cells.” for “cells. One proceeds as described in test a) except that the peptide is administered to the animals 6 hours after treatment with cyclophosphamide. The test is evaluated as described above.”

[4] = tested on: lymphocytes inhibited by Azathioprine; assay: E-rosetta test inhibited by Azathioprine; format: cell-based
Protocol: Inhibition of the proliferation of T-lymphocytes is tested in the E-rosetta test inhibited by Azathioprine [6-(1-methyl-4-nitroimidazole-5-yl-thio)-purine; Thymus 1, 195 (1980)].
To 200 μl of a healthy lymphocyte cell-suspension 500 μl/ml of Azathioprine and 200 μl of a separate dilution of the test compound in HBBS buffer (manufacturer: Flow, Great Britain) are added (concentration range: 10^-3 to […]). The mixture is incubated at a temperature of 37° C. in air containing 5% of carbon dioxide for 60 minutes, whereupon 200 μl of a 1% sheep erythrocyte suspension are added. The mixture thus-obtained is centrifuged at 1,000 r.p.m. for 5 minutes, the supernatant is removed by decanting and in the suspension the lymphocytes forming E-rosetta are counted under a microscope from at least 400 cells.
Under the effect of the peptides the E-rosetta forming activity of the lymphocytes inhibited by Azathioprine increases to different extent. […] It appears from the data of Table 2 that the tested peptides increase the E-rosetta forming capacity of inhibited lymphocytes, i.e. the peptides of the present invention show immunostimulant effect.

Lewis Lung Tumor (LLT) = assay: Tumor metastasis inhibiting effect; format: in vivo, C57 B1 mice; details: single 10 mg/kg i.p., 18th day
Protocol: 20 g male C57 B1 mice divided into groups consisting of 5 animals each, are injected with a Lewis Lung Tumor (LLT) cell-suspension. The said cell-suspension is administered into the tail vein, in a dose of 10^5 cells/mouse. Twenty-four hours after the administration of the tumor-cells the animals are treated with a single 10 mg/kg i.p. dose of the test compound. On the 18th day following infection with the tumor the animals are sacrificed and the cancer noduli appearing in the lungs are counted under a stereomicroscope. Animals not treated with peptide serve as control. In Table 8 the results obtained with Glp-Lys-NH2 dipeptide amide are disclosed.

[5] = tested on: human K-562 erythroleukaemical cell-line; assay: Inhibition of the proliferation of tumor cells (K-562); format: cell-based; details: 72nd hour after treatment, percentage of the control
Protocol: In the test human K-562 erythroleukaemical cell-line is used (Karolinska Institute, Stockholm). Incubation is carried out in a nutrient medium designated RPMI-1640 (manufactured by Flow, Great Britain) comprising 10% of foetal calf serum, at a temperature of 37° C., in a humidified incubator containing 3% of carbon dioxide, in plastic dishes. Every point of measurement corresponds to the average of the data measured in three dishes, each. At the beginning of the test the dilution amounts to 0.5×10^5 cells/ml. Treatment is carried out 24 hours after dilution in a manner that the medium is not changed after the treatment. The cells are counted for 96 hours after dilution every 24th hour wit the aid of a Buerker chamber.
Under the effect of the peptide in the 24th hour after treatment the cell number stagnates and later it increases to a very small extent. […] The tumor-cell division inhibiting effect of the new peptides is summarized in Table 1 (72 hours after treatment). The rate of inhibition is expressed in the percentage of the control. It clearly appears from the data of the Table that the tested peptides inhibit the proliferation of human K-562 erythroleukaemic cells.

[6] = tested on: antibody production inhibited by cyclophosphamide; assay: Effect on antibody production in mice treated with cyclophosphamide; format: in vivo, CELP mice; details: cyclophosphamide 100 mg/kg i.p., titer on 6th day
Protocol: The effect on in vivo antibody production is tested on CELP mice treated with a 100 mg/kg body weight dose of cyclophosphamide {2-[bis-(2-chloroethyl)-amino]-tetrahydro-2H-1,3,2-oxaza -phosphorine-2-oxide; method: Z. Naturforsch. 35B, 1476 (1980)}. The mice are intraperitoneally immunized with a 1% sheep erythrocyte suspension previously washed three times with a 0.9% sodium chloride solution after 10 minutes of centrifuging at 2,500 r.p.m. Simultaneously with immunization carried out on the 0. day, the activity of the immune system is suppressed by means of treatment with a 100 mg/kg i.p. does of cyclophosphamide. On the 3rd day of the test the peptides are administered to the animals intraperitoneally in a dose of 5, 50 and occasionally 100 mg/kg respectively. On the 6th day of the test blood is taken retroorbitally from the mice and the anti-sheep erythrocyte titer of the serum is determined. […] The effect of the peptides is expressed as percentage of the relief of inhibition (G %).

[7] = tested on: inflammation induced by oxozolone; assay: Dermatitis test induced with oxazolone; format: in vivo, CFLP mice; details: 24th hour after treatment, ear weight increase
Protocol: In this test a modified pharmacological model of D. P. Evans et al. [Br. J. Pharmac. 43, 403-488 (1971)] is used.
The abdominal skin of male CFLP mice weighing 20-22 g is painted after the removal of the hair with 0.1 ml of a 2% solution of oxazolon (4-ethoxymethyl-2-phenyl-oxazoline, manufacturer Sigma) in sunflower oil. On the right ear of the test animals 7 days after sensitization (painting) inflammatory reaction is induced with the aid of 10 μl of a 2% acetonous oxazolone solution and simultaneously the animals are treated with a 1 or 2 mg/kg, respectively, i.p. does of the test compound. The test compound is dissolved in a physiological sodium chloride solution in such a concentration that the active ingredient content corresponding to the dose should be dissolved in a volume of 0.5 ml/10 g animal body weight.
The antiinflammatory effect is determined as follows: the animals are sacrificed in the 24th hour after treatment, whereupon the right and left ears are cut off. The percentual weight increase of the right ear related to the left ear is characteristic of the rate of inflammation induced during the test, while the percentual reduction of weight increase of the treated animals related to the untreated control is proportional to the antiinflammatory effect. In Table 4 the reduction of weight increase (antiinflammatory effect) achieved by the test compounds is disclosed, as the percentage of the untreated control.

Substance: Glp-Lys-NH2 -mandelate
- Phagocyte activity x ± S.E.M. (number of yeast cells incorporated into the 100 PEC cells) ([1]; 0.1 mg/kg s.c. once a day for 2 days): 182.3 ± 3.5
- Phagocyte activity x ± S.E.M. (number of yeast cells incorporated into the 100 PEC cells) ([1]; 1.0 mg/kg s.c. once a day for 2 days): 209.3 ± 8.6
- Phagocyte activity x ± S.E.M. (number of yeast cells incorporated into the 100 PEC cells) ([1]; 10 mg/kg s.c. once a day for 2 days): 244.8 ± 4.3
- Phagocyte activity x ± S.E.M. (number of yeast cells incorporated by the 100 PEC cells) (PEC cells [2]; peptide 0.1 mg/kg s.c. 6 hours after CY): 226.5 ± 8.8
- Phagocyte activity x ± S.E.M. (number of yeast cells incorporated by the 100 PEC cells) (PEC cells [2]; peptide 1.0 mg/kg s.c. 6 hours after CY): 252.2 ± 7.4
- Phagocyte activity x ± S.E.M. (number of yeast cells incorporated by the 100 PEC cells) (PEC cells [2]; peptide 10 mg/kg s.c. 6 hours after CY): 257.3 ± 9.3
- Phagocyte activity x ± S.E.M. (number of yeast cells incorporated by the 100 PEC cells) (PEC cells [3]; CY 80 mg/kg p.o. + peptide 0.1 mg/kg s.c. simultaneously): 241.7 ± 20.3
- Phagocyte activity x ± S.E.M. (number of yeast cells incorporated by the 100 PEC cells) (PEC cells [3]; CY 80 mg/kg p.o. + peptide 1.0 mg/kg s.c. simultaneously): 215.2 ± 21.5
- Phagocyte activity x ± S.E.M. (number of yeast cells incorporated by the 100 PEC cells) (PEC cells [3]; CY 80 mg/kg p.o. + peptide 10 mg/kg s.c. simultaneously): 164.4 ± 13.8

Substance: Glp-Lys-NH2 [Peptide 1]
- Relief of inhibition (R %) of E-rosetta forming activity ([4]; peptide 10^-3 mole/l): 33.0%
- Relief of inhibition (R %) of E-rosetta forming activity ([4]; peptide 10^-5 mole/l): 9.9%
- Relief of inhibition (R %) of E-rosetta forming activity ([4]; peptide 10^-7 mole/l): 36.6%
- Relief of inhibition (R %) of E-rosetta forming activity ([4]; peptide 10^-9 mole/l): 25.0%
- Relief of inhibition (R %) of E-rosetta forming activity ([4]; peptide 10^-11 mole/l): 10.0%
- No. of metastases in the lungs (Lewis Lung Tumor (LLT); treated animal No. 1, untreated control 15): 0
- No. of metastases in the lungs (Lewis Lung Tumor (LLT); treated animal No. 2, untreated control 20): 2
- No. of metastases in the lungs (Lewis Lung Tumor (LLT); treated animal No. 3, untreated control 16): 1
- No. of metastases in the lungs (Lewis Lung Tumor (LLT); treated animal No. 4, untreated control 12): 2
- No. of metastases in the lungs (Lewis Lung Tumor (LLT); treated animal No. 5, untreated control 11): 5
- Inhibition of the proliferation of K-562 cells, inhibition (c %) ([5]; peptide 1/ug/ml): 20%
- Inhibition of the proliferation of K-562 cells, inhibition (c %) ([5]; peptide 10/ug/ml): 42%
- Restoration of primary immune answer, G % ([6]; peptide 5 mg/kg i.p. on 3rd day): 123.8%
- Restoration of primary immune answer, G % ([6]; peptide 50 mg/kg i.p. on 3rd day): 133.3%
- Inhibition of inflammation induced by oxozolone, inhibition as % of control ([7]; 1 mg/kg i.p.): 62%
- Inhibition of inflammation induced by oxozolone, inhibition as % of control ([7]; 2 mg/kg i.p.): 61%
